Laboratory results as given in patent US20240218022A1, “ANTI-VISTA MACROCYCLIC PEPTIDES AND COMPOSITIONS” (BRISTOL-MYERS SQUIBB COMPANY, priority 2022, published 2024).
Positions of bridges follow the written chain, without caps; N, C: chain ends. Non-standard residues stand in square brackets, D forms with d. Residues, ends and D or L forms follow the SMILES beside them. ξ: configuration not given here. Phe(3-Me) = Cc1cccc(C[C@H](N)C(=O)O)c1; Phe(4-Me) = Cc1ccc(C[C@H](N)C(=O)O)cc1; Cit = NC(=O)NCCC[C@H](N)C(=O)O; Ahp(2) = CCCCC[C@H](N)C(=O)O; NMeNle = CCCC[C@H](NC)C(=O)O; Tle = CC(C)(C)[C@H](N)C(=O)O; NHexGly = CCCCCCNCC(=O)O; Nle = CCCC[C@H](N)C(=O)O; Orn = NCCC[C@H](N)C(=O)O; ξS = NC(CO)C(=O)O

Biological target: T1, mouse VISTA (mVISTA) (Mus musculus, UniProt Q9D659)
T1 construct: expressed in transfected cells; host or cells: Human embryonic kidney 293T cells
T1 sequence (Q9D659 33-308): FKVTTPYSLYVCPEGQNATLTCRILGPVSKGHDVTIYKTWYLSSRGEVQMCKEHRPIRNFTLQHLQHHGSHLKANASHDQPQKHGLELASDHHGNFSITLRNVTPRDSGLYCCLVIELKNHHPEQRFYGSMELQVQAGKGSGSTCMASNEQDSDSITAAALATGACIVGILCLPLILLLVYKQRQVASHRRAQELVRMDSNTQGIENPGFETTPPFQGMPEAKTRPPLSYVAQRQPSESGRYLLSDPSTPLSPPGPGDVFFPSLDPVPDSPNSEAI
Assay: Cell-Based Binding High-Content Assay For mVISTA (HC CBA mVISTA)
Conditions: read-out: HC CBA mVISTA IC50
Outline: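 This high-content binding assay uses HEK293T cells expressing murine VISTA, measuring displacement of 2 nM biotinylated peptide by fluorescent streptavidin imaging. IC50 values come from four-parameter logistic fitting.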

Row | IC50 | Compound
1 | 12.7 nM | CCCCCCN1CC(=O)N[C@@H](Cc2ccc(O)cc2)C(=O)N[C@@H](CCCC)C(=O)N[C@@H](CC(N)=O)C(=O)N[C@@H](CCCNC(=N)N)C(=O)N(C)[C@@H](CCCC)C(=O)N[C@@H](CCCCC)C(=O)N2CCC[C@H]2C(=O)N[C@@H](C(C)C)C(=O)N[C@@H](CC(=O)O)C(=O)N[C@H](C(=O)NCC(=O)O)CSCC(=O)N[C@@H](Cc2ccccc2)C(=O)N[C@@H](Cc2cccc(C)c2)C(=O)N[C@@H](CC(=O)O)C1=O [compound 1345] ({CH2CO}-F[Phe(3-Me)]D[NHexGly]Y[Nle]NR[NMeNle][Ahp(2)]PVDCG-OH; thioether N-14)
2 | 6.1 nM | CCCCCCN1CC(=O)N[C@@H](Cc2ccc(O)cc2)C(=O)N[C@@H](CCCCC)C(=O)N[C@@H](CC(N)=O)C(=O)N[C@@H](CCCNC(=N)N)C(=O)N(C)[C@@H](CCCC)C(=O)N[C@@H](CCCCC)C(=O)N2CCC[C@H]2C(=O)N[C@@H](C(C)C)C(=O)N[C@@H](C(C)C)C(=O)N[C@H](C(=O)NC(CO)C(=O)O)CSCC(=O)N[C@@H](Cc2ccccc2)C(=O)N[C@@H](Cc2cccc(C)c2)C(=O)N[C@@H](CC(=O)O)C1=O (some centres unmarked) [compound 1346] ({CH2CO}-F[Phe(3-Me)]D[NHexGly]Y[Ahp(2)]NR[NMeNle][Ahp(2)]PVVC[ξS]-OH; thioether N-14)
3 | 10.6 nM | CCCCCCN1CC(=O)N[C@@H](Cc2ccc(O)cc2)C(=O)N[C@@H](CCCC)C(=O)N[C@@H](CC(=O)O)C(=O)N[C@@H](CCCNC(=N)N)C(=O)N(C)[C@@H](CCCC)C(=O)N[C@@H](CCCCC)C(=O)N2CCC[C@H]2C(=O)N[C@@H](C(C)C)C(=O)N[C@@H](CC(=O)O)C(=O)N[C@H](C(=O)NC(CO)C(N)=O)CSCC(=O)N[C@@H](Cc2ccccc2)C(=O)N[C@@H](Cc2cccc(C)c2)C(=O)N[C@@H](CC(=O)O)C1=O (some centres unmarked) [compound 1347] ({CH2CO}-F[Phe(3-Me)]D[NHexGly]Y[Nle]DR[NMeNle][Ahp(2)]PVDC[ξS]-NH2; thioether N-14)
4 | 23.2 nM | CCCCCCN1CC(=O)N[C@@H](Cc2ccc(O)cc2)C(=O)N[C@@H](CCCC)C(=O)N[C@@H](CC(=O)O)C(=O)N[C@@H](CCCN)C(=O)N(C)[C@@H](CCCC)C(=O)N[C@@H](CCCCC)C(=O)N2CCC[C@H]2C(=O)N[C@@H](C(C)C)C(=O)N[C@@H](CC(=O)O)C(=O)N[C@H](C(=O)NC(CO)C(N)=O)CSCC(=O)N[C@@H](Cc2ccccc2)C(=O)N[C@@H](Cc2cccc(C)c2)C(=O)N[C@@H](CC(=O)O)C1=O (some centres unmarked) [compound 1348] ({CH2CO}-F[Phe(3-Me)]D[NHexGly]Y[Nle]D[Orn][NMeNle][Ahp(2)]PVDC[ξS]-NH2; thioether N-14)

Row | Compound | IC50
5 | CCCCCCN1CC(=O)N[C@@H](Cc2ccc(O)cc2)C(=O)N[C@@H](CC(C)C)C(=O)N[C@@H](CC(N)=O)C(=O)N[C@@H](CCCNC(=N)N)C(=O)N(C)[C@@H](CCCC)C(=O)N[C@@H](CCCCC)C(=O)N2CCC[C@H]2C(=O)N[C@@H](C(C)(C)C)C(=O)N[C@@H](CO)C(=O)N[C@H](C(=O)NCC(N)=O)CSCC(=O)N[C@@H](Cc2ccccc2)C(=O)N[C@@H](Cc2ccc(C)cc2)C(=O)N[C@@H](CC(=O)O)C1=O [compound 1349] ({CH2CO}-F[Phe(4-Me)]D[NHexGly]YLNR[NMeNle][Ahp(2)]P[Tle]SCG-NH2; thioether N-14) | 43.6 nM

Same assay, conditions: the 19th table, scaffold drawing 22; read-out: HC CBA mVISTA IC50

Row | IC50 | Compound
6 | 7.6 nM | CCCCCCN1CC(=O)N[C@@H](Cc2ccc(O)cc2)C(=O)N[C@@H](CCCC)C(=O)N[C@@H](CC(=O)O)C(=O)N[C@@H](CCCN)C(=O)N[C@@H](CC(C)C)C(=O)N[C@@H](CCCCC)C(=O)N2CCC[C@H]2C(=O)N[C@@H](C(C)C)C(=O)N[C@@H](CC(=O)O)C(=O)N[C@H](C(=O)N[C@@H](CC(=O)O)C(N)=O)CSCC(=O)N[C@@H](Cc2cccc(C)c2)C(=O)N[C@@H](Cc2c[nH]c3ccccc23)C(=O)N[C@@H](CC(=O)O)C1=O [compound 1418] ({CH2CO}-[Phe(3-Me)]WD[NHexGly]Y[Nle]D[Orn]L[Ahp(2)]PVDCD-NH2; thioether N-14)
7 | 8.1 nM | CCCCCCN1CC(=O)N[C@@H](Cc2ccc(O)cc2)C(=O)N[C@@H](CCCC)C(=O)N[C@@H](CC(=O)O)C(=O)N[C@@H](CCCNC(=N)N)C(=O)N[C@@H](CC(C)C)C(=O)N[C@@H](CCCCC)C(=O)N2CCC[C@H]2C(=O)N[C@@H](C(C)C)C(=O)N[C@@H](CC(=O)O)C(=O)N[C@H](C(=O)N[C@@H](CC(=O)O)C(N)=O)CSCC(=O)N[C@@H](Cc2cccc(C)c2)C(=O)N[C@@H](Cc2c[nH]c3ccccc23)C(=O)N[C@@H](CC(=O)O)C1=O [compound 1419] ({CH2CO}-[Phe(3-Me)]WD[NHexGly]Y[Nle]DRL[Ahp(2)]PVDCD-NH2; thioether N-14)
8 | 2 nM | CCCCCCN1CC(=O)N[C@@H](Cc2ccc(O)cc2)C(=O)N[C@@H](CCCC)C(=O)N[C@@H](CC(N)=O)C(=O)N[C@@H](CCCNC(=N)N)C(=O)N[C@@H](CC(C)C)C(=O)N[C@@H](CCCCC)C(=O)N2CCC[C@H]2C(=O)N[C@@H](C(C)C)C(=O)N[C@@H](CC(=O)O)C(=O)N[C@H](C(=O)NCC(=O)O)CSCC(=O)N[C@@H](Cc2cccc(C)c2)C(=O)N[C@@H](Cc2c[nH]c3ccccc23)C(=O)N[C@@H](CC(=O)O)C1=O [compound 1420] ({CH2CO}-[Phe(3-Me)]WD[NHexGly]Y[Nle]NRL[Ahp(2)]PVDCG-OH; thioether N-14)
9 | 3.1 nM | CCCCCCN1CC(=O)N[C@@H](Cc2ccc(O)cc2)C(=O)N[C@@H](CCCC)C(=O)NCC(=O)N[C@@H](CCCNC(=N)N)C(=O)N[C@@H](CC(C)C)C(=O)N[C@@H](CCCCC)C(=O)N2CCC[C@H]2C(=O)N[C@@H](C(C)C)C(=O)N[C@@H](CC(=O)O)C(=O)N[C@H](C(=O)NCC(=O)O)CSCC(=O)N[C@@H](Cc2cccc(C)c2)C(=O)N[C@@H](Cc2c[nH]c3ccccc23)C(=O)N[C@@H](CC(=O)O)C1=O [compound 1421] ({CH2CO}-[Phe(3-Me)]WD[NHexGly]Y[Nle]GRL[Ahp(2)]PVDCG-OH; thioether N-14)
10 | 4.2 nM | CCCCCCN1CC(=O)N[C@@H](Cc2ccc(O)cc2)C(=O)N[C@@H](CC(C)C)C(=O)N[C@@H](CC(N)=O)C(=O)N[C@@H](CCCNC(=N)N)C(=O)N[C@@H](CC(C)C)C(=O)N[C@@H](CCCCC)C(=O)N2CCC[C@H]2C(=O)N[C@@H](C(C)C)C(=O)N[C@@H](C(C)C)C(=O)N[C@H](C(=O)NCC(=O)O)CSCC(=O)N[C@@H](Cc2cccc(C)c2)C(=O)N[C@@H](Cc2c[nH]c3ccccc23)C(=O)N[C@@H](CC(=O)O)C1=O [compound 1422] ({CH2CO}-[Phe(3-Me)]WD[NHexGly]YLNRL[Ahp(2)]PVVCG-OH; thioether N-14)
11 | 16.7 nM | CCCCCCN1CC(=O)N[C@@H](Cc2ccc(O)cc2)C(=O)N[C@@H](CCCC)C(=O)N[C@@H](CC(N)=O)C(=O)N[C@@H](CCCNC(N)=O)C(=O)N[C@@H](CC(C)C)C(=O)N[C@@H](CCCCC)C(=O)N2CCC[C@H]2C(=O)N[C@@H](C(C)C)C(=O)N[C@@H](CC(=O)O)C(=O)N[C@H](C(=O)NCC(=O)O)CSCC(=O)N[C@@H](Cc2cccc(C)c2)C(=O)N[C@@H](Cc2c[nH]c3ccccc23)C(=O)N[C@@H](CC(=O)O)C1=O [compound 1423] ({CH2CO}-[Phe(3-Me)]WD[NHexGly]Y[Nle]N[Cit]L[Ahp(2)]PVDCG-OH; thioether N-14)
